In ChEMBL document CHEMBL6127042, “Design, synthesis and antimycobacterial activity of novel benzothiazinones with improved water solubility” (Eur J Med Chem, 2024):
Converted amounts (≈) assume the structure as drawn.

How the values were obtained:
[1] = system: Mycobacterium tuberculosis; test: Antitubercular activity against multidrug resistant Mycobacterium tuberculosis 16833 assessed as bacterial growth inhibition incubated for 7 days in 7H9 medium by alamar blue staining based microplate fluorometric analysis; type: functional; details: Mycobacterium tuberculosis, 16833, 168 h; time 7 day
[2] = Selectivity index, ratio of CC50 for cytotoxicity against African green monkey Vero cells to MIC for antimycobacterial activity against multidrug resistant Mycobacterium tuberculosis 16833; type: toxicity, cell-based; details: read-out: Selectivity Index
[3] = system: Mycobacterium tuberculosis; test: Antitubercular activity against multidrug resistant Mycobacterium tuberculosis 16995 assessed as bacterial growth inhibition incubated for 7 days in 7H9 medium by alamar blue staining based microplate fluorometric analysis; type: functional; details: Mycobacterium tuberculosis, 16995, 168 h; time 7 day

SMILES | MIC [1] | selectivity ratio [2] | MIC [3]
O=C(O)CNC(=O)CCON=C1CCC(CN2CCN(c3nc(=O)c4cc(C(F)(F)F)cc([N+](=O)[O-])c4s3)CC2)CC1 (stereo not drawn) | 0.21 µM (≈ 0.129 µg/mL) | > 496 | 0.425 µM (≈ 0.261 µg/mL)
CC(C)(C)OC(=O)NCCON=C1CCC(CN2CCN(c3nc(=O)c4cc(C(F)(F)F)cc([N+](=O)[O-])c4s3)CC2)CC1 (stereo not drawn) | < 0.025 µM | > 4080 | 0.041 µM (≈ 0.0258 µg/mL)
CC(C)(C)OC(=O)CNC(=O)CCON=C1CCC(CN2CCN(c3nc(=O)c4cc(C(F)(F)F)cc([N+](=O)[O-])c4s3)CC2)CC1 (stereo not drawn) | 0.048 µM (≈ 0.0322 µg/mL) | > 1990 | 0.093 µM (≈ 0.0624 µg/mL)
O=C(O)CCON=C1CCC(CN2CCN(c3nc(=O)c4cc(C(F)(F)F)cc([N+](=O)[O-])c4s3)CC2)CC1 (stereo not drawn) | 0.212 µM (≈ 0.118 µg/mL) | > 542 | 0.221 µM (≈ 0.123 µg/mL)
O=C(O)CON=C1CCC(CN2CCN(c3nc(=O)c4cc(C(F)(F)F)cc([N+](=O)[O-])c4s3)CC2)CC1 (stereo not drawn) | 0.057 µM (≈ 0.031 µg/mL) | > 2070 | 0.057 µM (≈ 0.031 µg/mL)
CC(C)(C)OC(=O)CNC(=O)C(C)(C)ON=C1CCC(CN2CCN(c3nc(=O)c4cc(C(F)(F)F)cc([N+](=O)[O-])c4s3)CC2)CC1 (stereo not drawn) | 0.067 µM (≈ 0.0459 µg/mL) | > 1400 | 0.066 µM (≈ 0.0452 µg/mL)
C[C@H](NC(=O)CON=C1CCC(CN2CCN(c3nc(=O)c4cc(C(F)(F)F)cc([N+](=O)[O-])c4s3)CC2)CC1)C(=O)OC(C)(C)C (stereo partly drawn) | 0.14 µM (≈ 0.0939 µg/mL) | > 682 | 0.167 µM (≈ 0.112 µg/mL)
CC(C)(C)OC(=O)CNC(=O)CON=C1CCC(CN2CCN(c3nc(=O)c4cc(C(F)(F)F)cc([N+](=O)[O-])c4s3)CC2)CC1 (stereo not drawn) | 0.239 µM (≈ 0.157 µg/mL) | > 408 | 0.03 µM (≈ 0.0197 µg/mL)
O=C(O)CNC1CCC(CN2CCN(c3nc(=O)c4cc(C(F)(F)F)cc([N+](=O)[O-])c4s3)CC2)CC1 (stereo not drawn) | 0.087 µM (≈ 0.0461 µg/mL) | > 1390 | 0.095 µM (≈ 0.0503 µg/mL)
C[C@H](NC(=O)C(C)(C)ON=C1CCC(CN2CCN(c3nc(=O)c4cc(C(F)(F)F)cc([N+](=O)[O-])c4s3)CC2)CC1)C(=O)OC(C)(C)C (stereo partly drawn) | < 0.023 µM | > 3980 | 0.03 µM (≈ 0.021 µg/mL)
CC(C)(ON=C1CCC(CN2CCN(c3nc(=O)c4cc(C(F)(F)F)cc([N+](=O)[O-])c4s3)CC2)CC1)C(=O)O (stereo not drawn) | 0.375 µM (≈ 0.214 µg/mL) | > 299 | 0.109 µM (≈ 0.0623 µg/mL)
CC(C)(C)OC(=O)CCON=C1CCC(CN2CCN(c3nc(=O)c4cc(C(F)(F)F)cc([N+](=O)[O-])c4s3)CC2)CC1 (stereo not drawn) | 0.031 µM (≈ 0.019 µg/mL) | > 3370 | 0.068 µM (≈ 0.0417 µg/mL)
NNC(=O)c1ccncc1 [ISONIAZID] | > 72.9 µM |  | > 72.9 µM
O=c1nc(N2CCN(CC3CCCCC3)CC2)sc2c([N+](=O)[O-])cc(C(F)(F)F)cc12 [MACOZINONE] | < 0.035 µM | > 4010 | < 0.035 µM
CO[C@H]1/C=C/O[C@@]2(C)Oc3c(C)c(O)c4c(O)c(c(/C=N/N5CCN(C)CC5)c(O)c4c3C2=O)NC(=O)/C(C)=C\C=C\[C@H](C)[C@H](O)[C@@H](C)[C@@H](O)[C@@H](C)[C@H](OC(C)=O)[C@@H]1C [RIFAMPIN] | > 12.2 µM |  | > 12.2 µM
